# Key:
# [1] = target: T1, sex hormone binding globulin (SHBG) (Homo sapiens, UniProt P04278); settings: cited from earlier work
# T1 sequence (P04278 30-402): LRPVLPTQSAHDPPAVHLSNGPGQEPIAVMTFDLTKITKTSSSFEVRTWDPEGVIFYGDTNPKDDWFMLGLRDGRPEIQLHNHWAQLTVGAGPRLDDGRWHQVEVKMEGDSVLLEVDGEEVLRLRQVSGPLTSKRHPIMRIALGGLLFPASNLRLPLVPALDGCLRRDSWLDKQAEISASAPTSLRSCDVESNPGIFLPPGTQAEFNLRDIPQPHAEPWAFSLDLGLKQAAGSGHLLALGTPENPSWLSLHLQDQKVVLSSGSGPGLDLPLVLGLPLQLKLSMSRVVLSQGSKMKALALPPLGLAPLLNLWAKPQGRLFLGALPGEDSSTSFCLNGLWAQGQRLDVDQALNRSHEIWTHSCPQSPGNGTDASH
# [2] = test system: human breast cancer cells; settings: in vitro; cited from earlier work
# [3] = Randomized, open-label, two-period, cross-over pharmacokinetic study, sublingual versus oral 10 mg estetrol tablet; type: in vivo, human; settings: 10 mg estetrol sublingual vs oral; healthy female volunteers
# Protocol: A randomized, open-label, two-period, cross-over, pharmacokinetic study is conducted to compare sublingual bioavailability of 10 mg estetrol administered in one 80 mg tablet (having the same composition as the tablets described in Example 4, Formulation E) with oral availability of estetrol contained in a 83 mg tablet containing 10 mg estetrol. These tablets are administered sublingually and orally to healthy female volunteers under fasting conditions.
# Ten healthy female subjects are selected on the basis of the following criteria: age of 45-65 years (inclusive), nonsmokers or past smokers (at least 6 months before dosing), body-mass index (BMI)=18.5 to 30 kg/m^2 (inclusive at the time of the screening).
# At the start of the first and the second period of the study, between 07:00 am and 07:28 am, 5 subjects receive a single dose of the sublingual formulation of estetrol by administering one estetrol tablet (tablet weight 80 mg; 10 mg estetrol) and 5 subjects receive a single oral dose of the oral estetrol formulation by administering one estetrol tablet (tablet weight 83 mg; 10 mg estetrol), ingested together with 200 ml water. […]
# The estetrol concentration in the collected blood samples is determined by means of HPLC/MS/MS. The concentrations of glucuronided estetrol (D-ring) in the urine samples is also determined with the help of HPLC/MS/MS.
# DMBA mammary tumour = settings: extent and dose level similar to tamoxifen and to ovariectomy; cited from earlier work
# [4] = humans; cited from earlier work
# estrogen receptors = settings: in vitro; cited from earlier work
# [5] = test system: vagina, uterus, body weight, bone mass, bone strength, hot flushes, ovulation; settings: ovulation (inhibition), dose-dependent; cited from earlier work
# production of SHBG = settings: in vitro; cited from earlier work
smiles,measurement,setting,value
"C[C@]12CC[C@@H]3c4ccc(O)cc4CC[C@H]3[C@@H]1[C@@H](O)[C@@H](O)[C@@H]2O [estetrol, 1,3,5 (10)-estratrien-3,15α,16α, 17β-tetrol]",Binding to SHBG,[1],does not bind
same,Effect in the presence of 17β-estradiol,[2],anti-estrogenic effect
same,"Impact on a liver function parameter, sublingual compared with oral",[3],less impact on a liver function parameter
same,Tumour development,DMBA mammary tumour,prevented tumour development
same,Oral bioavailability,[4],high and dose-proportional
same,Terminal elimination half-life,[4],about 28 hours
same,Estrogen receptor binding selectivity,estrogen receptors,binds highly selective to the estrogen receptors with preference for the ERα form
same,Estrogenic effects in rat models,[5],exhibited estrogenic effects
same,Stimulation of the production of SHBG,production of SHBG,does not stimulate
